Data set [1] concerns RG2. Nature of the data set: Induction of cell cycle arrest in rat RG2 cells assessed as accumulation at G0/G1 phase at 206 uM after 12 hrs by propidium iodide staining based flow cytometric analysis (reference value: 57.81 +/- 1.9%). Format: functional. (In general: In flow cytometry, cells or beads pass a laser one at a time.)
In data set [2] the test system is RG2. Nature of the data set: Induction of cell cycle arrest in rat RG2 cells assessed as accumulation at G0/G1 phase at 206 uM after 48 hrs by propidium iodide staining based flow cytometric analysis (reference value: 57.81 +/- 1.9%). The format is functional.
Data set [3] relates to RG2. Nature of the data set: Induction of DNA damage in rat RG2 cells assessed as Chk1 phosphorylation at ser345 at 206 uM after 48 hrs by Western blot analysis (reference value: 1). The format is functional. (Immunoblotting shows a protein as a band on a membrane.)
For data set [4], the system named is DBTRG-05MG. Briefly: Induction of apoptosis in human DBTRG-05MG cells assessed as phosphorylated caspace-3 expression at 206 uM after 48 hrs by Western blot analysis (reference value: 1). The format is functional.
Data set [5] deals with RG2. Nature of the data set: Induction of cell cycle arrest in rat RG2 cells assessed as CyclinD1 expression at 206 uM after 48 hrs by Western blot analysis (reference value: 1). Format: functional.
For data set [6], the system named is DBTRG-05MG. Briefly: Induction of cell cycle arrest in human DBTRG-05MG cells assessed as accumulation at S phase at 206 uM after 6 hrs by propidium iodide staining based flow cytometric analysis (reference value: 22.76 +/- 1.56%). Format: functional.
For data set [7], the system named is RG2. Nature of the data set: Induction of apoptosis in rat RG2 cells assessed as Bax expression at 206 uM after 48 hrs by Western blot analysis (reference value: 1). The format is functional.
The test system of data set [8] is RG2. Briefly: Induction of apoptosis in rat RG2 cells assessed as cleaved caspace-9 expression at 206 uM after 48 hrs by Western blot analysis (reference value: 1). The format is functional.
In data set [9] the test system is DBTRG-05MG. Nature of the data set: Synergistic cytotoxicity against human DBTRG-05MG cells assessed as combination index at 89.9 uM after 48 hrs in presence of 412.1 uM TMZ by MTT assay. The format is functional. Background: Tetrazolium dyes change colour on reduction, which living cells bring about.
The nature of data set [10]: Inhibition of TMZ-induced drug resistance in human DBTRG-05MG cells assessed as CD133 expression at 112.4 uM after 48 hrs by Western blot analysis (reference value: 2.3). The format is functional.
A short description of data set [11]: Effect on ERK expression in human DBTRG-05MG cells at 112.4uM after 48 hrs in presence of TMZ by Western blot analysis (reference value: 1). Format: functional.
The test system of data set [12] is DBTRG-05MG. Nature of the data set: Induction of apoptosis in human DBTRG-05MG cells assessed as increase in chromatin condensation at 112.4 uM after 48 hrs in presence of TMZ by TUNEL assay. Format: functional, cell-based.
Data set [13] relates to RG2. Nature of the data set: Induction of apoptosis in rat RG2 cells assessed as cleaved PARP expression at 112.4 uM after 48 hrs in presence of TMZ by Western blot analysis (reference value: 1). The format is functional.
The subject of data set [14] is DBTRG-05MG. Briefly: Synergistic cytotoxicity against human DBTRG-05MG cells assessed as synergistic effect index at 134.9 uM after 48 hrs in presence of 103 uM TMZ by MTT assay. The format is functional.
Data set [15] relates to RG2. Nature of the data set: Induction of cell cycle arrest in rat RG2 cells assessed as accumulation at S phase at 112.4 uM after 48 hrs by propidium iodide staining based flow cytometric analysis (reference value: 20.15 +/- 2.44%). Format: functional.
In data set [16] the test system is RG2. Briefly: Induction of cell cycle arrest in rat RG2 cells assessed as accumulation at G0/G1 phase at 112.4 uM after 12 hrs in presence of TMZ by propidium iodide staining based flow cytometric analysis (reference value: 57.81 +/- 1.9%). The format is functional.
Data set [17] has as its system DBTRG-05MG. Briefly: Synergistic cytotoxicity against human DBTRG-05MG cells assessed as synergistic effect index at 112.4 uM after 48 hrs in presence of 103 uM TMZ by MTT assay. The format is functional.
Data set [18] in a line: Effect on ERK expression in human DBTRG-05MG cells at 112.4uM after 48 hrs by Western blot analysis (reference value: 1). The format is functional.
Data set [19] concerns RG2. Nature of the data set: Synergistic cytotoxicity against rat RG2 cells assessed as synergistic effect index at 89.9 uM after 48 hrs in presence of 309 uM TMZ by MTT assay. Format: functional.
Data set [20] relates to RG2. Nature of the data set: Synergistic cytotoxicity against rat RG2 cells assessed as synergistic effect index at 89.9 uM after 48 hrs in presence of 206 uM TMZ by MTT assay. Format: functional.
Data set [21] has as its system RG2. Briefly: Induction of apoptosis in rat RG2 cells assessed as increase in apoptotic body formation at 112.4 uM after 48 hrs by TUNEL assay. The format is functional, cell-based.
Data set [22] has as its system RG2. Briefly: Inhibition of TMZ-induced drug resistance in rat RG2 cells assessed as reduction in MGMT protein expression at 112.4 uM after 48 hrs by Immunohistochemistry method. Format: functional, cell-based.
Data set [23] relates to RG2. Briefly: Synergistic cytotoxicity against rat RG2 cells assessed as combination index at 89.9 uM after 48 hrs in presence of 412.1 uM TMZ by MTT assay. Format: functional.
In data set [24] the test system is DBTRG-05MG. Briefly: Induction of apoptosis in human DBTRG-05MG cells assessed as cleaved caspace-9 expression at 112.4 uM after 48 hrs by Western blot analysis (reference value: 1). Format: functional.
Data set [25] concerns DBTRG-05MG. Briefly: Induction of cell cycle arrest in human DBTRG-05MG cells assessed as accumulation at S phase at 112.4 uM after 12 hrs by propidium iodide staining based flow cytometric analysis (reference value: 22.76 +/- 1.56%). Format: functional.
The test system of data set [26] is RG2. Nature of the data set: Induction of cell cycle arrest in rat RG2 cells assessed as accumulation at S phase at 112.4 uM after 24 hrs by propidium iodide staining based flow cytometric analysis (reference value: 20.15 +/- 2.44%). Format: functional.
The nature of data set [27]: Effect on ERK expression in rat RG2 cells at 112.4uM after 48 hrs by Western blot analysis (reference value: 1). Format: functional.
For data set [28], the system named is DBTRG-05MG. Briefly: Synergistic cytotoxicity against human DBTRG-05MG cells assessed as combination index at 89.9 uM after 48 hrs in presence of 309 uM TMZ by MTT assay. Format: functional.
Data set [29] in a line: Toxicity in BALB/c mouse xenografted with DBTRG-05MG cells assessed as reduction in body weight at 75 mg/kg, sc for every 2 days for 20 days. The format is organism-based. The settings on record: in vivo, 480 h, time 20 day.
Data set [30] relates to DBTRG-05MG. Nature of the data set: Synergistic cytotoxicity against human DBTRG-05MG cells assessed as combination index at 112.4 uM after 48 hrs in presence of 309 uM TMZ by MTT assay. Format: functional.
Data set [31] is described as follows: Synergistic cytotoxicity against rat CTX TNA2 cells assessed as synergistic effect index at 112.4 uM after 48 hrs in presence of 515.1 uM TMZ by MTT assay. The format is cell-based. The settings on record: ctx tna2, 48 h.
For data set [32], the system named is RG2. Nature of the data set: Synergistic cytotoxicity against rat RG2 cells assessed as combination index at 112.4 uM after 48 hrs in presence of 206 uM TMZ by MTT assay. The format is functional.
Data set [33] is described as follows: Effect on p38 expression in rat RG2 cells at 112.4uM after 48 hrs in presence of TMZ by Western blot analysis (reference value: 1). The format is functional.
Data set [34] in a line: Inhibition of TMZ-induced drug resistance in rat RG2 cells assessed as CD133 expression at 112.4 uM after 48 hrs by Western blot analysis (reference value: 2.4). Format: functional.
In data set [35] the test system is DBTRG-05MG. Nature of the data set: Induction of apoptosis in human DBTRG-05MG cells assessed as increase in DNA fragmentation at 112.4 uM after 48 hrs by TUNEL assay. The format is functional, cell-based.

SMILES strings stand for the structures. Active and inactive are the calls of the source. The calls are words filed in the database; no cut-off is given here.

For the compound `Cn1nnc2c(C(N)=O)ncn2c1=O` [TEMOZOLOMIDE], the Activity in the data set on RG2 [1] was 49.55%; in the data set on RG2 [2], 26.97%; with DBTRG-05MG [6] it was 24.76%. The “fold change (FC)” value in the data set on RG2 [3] came to 1.8; in the data set on DBTRG-05MG [4], 1.3; with RG2 [5], 1; in the data set on RG2 [7], 1.1; with RG2 [8] it was 1.7.

With `C[C@@H]1CC[C@H]2C(C)(C)[C@H]3C[C@@]12CC[C@@]3(C)O` [CEDROL], the CI in the data set with DBTRG-05MG [9] turned out to be 0.8; with RG2 [23], 1.34; with DBTRG-05MG [28] it was 0.74; in the data set on DBTRG-05MG [30], 0.57; with RG2 [32], 0.79. Also, the “fold change (FC)” value was found to be 1.5 in data set [10]; 0.8 in data set [11]; 1.6 in the data set with RG2 [13]; 1 in data set [18]; 1.1 in the data set on DBTRG-05MG [24]; 1.1 in data set [27]. Besides, the results for the “fold change (FC)” value in [33] and in [34] were 0.5 and 1.3, respectively. The result in the data set on DBTRG-05MG [12], in the data set with RG2 [21] and in the data set on DBTRG-05MG [35] was Active. Besides, the Activity_index in the data set on DBTRG-05MG [14] turned out to be 0.86; with DBTRG-05MG [17], 0.84; in the data set with RG2 [19], 0.72; with RG2 [20], 0.69; in [31], 0.7. The Activity with RG2 [15] is reported as 16.62%; in the data set on RG2 [16], 61.92%; with DBTRG-05MG [25], 14.32%; in the data set on RG2 [26], 9.09%; in [29] it was “Non-Toxic”. Besides, the inhibition entry with RG2 [22] is “Active”.
